Test results from the COVID Moonshot data (paper PMC11187573), “Identification of SARS-CoV-2 Mpro inhibitors through deep reinforcement learning for de novo drug design and computational chemistry approaches” (RSC Medicinal Chemistry, 2024).

How the values were obtained:
[1] = target: SARS-CoV-2 Main Protease (SARS-CoV-2) (UniProt P0DTD1)
[2] = target: SARS-CoV-2 Main Protease (SARS-CoV-2) (UniProt P0DTD1); remark: listed apart in the source

Compound	relative solubility at 20 uM	relative solubility at 100 uM	inhibition ([1]; 50.0 µM) [%]	inhibition ([2]; 20.0 µM) [%]	inhibition ([2]; 50.0 µM) [%]	inhibition ([1]; 20.0 µM) [%]	IC50 [1] [µM]
Cc1ccc(S(=O)(=O)N2CCN(C(=O)c3cc(=O)[nH]c4ccc(Cl)cc34)CC2)cc1	0.97	0.88	11.5	-0.869	-0.533	–	–
O=C(Cc1cccnc1Cl)Nc1cccc(OCCc2ccccc2)c1	0.81	0.27	5.03	1.54	6.9	0	–
CCOc1ccccc1OC1CCN(C(=O)c2cc(=O)[nH]c3cc(F)ccc23)C1 (stereo not drawn)	1	0.99	0	13.4	21.4	–	–
CN(C)C/C=C/C(=O)Nc1c[nH]c2ccccc12	1	1	–	5.8	22.5	0	–
Cc1ncncc1NC(=O)C(c1cccc(Cl)c1)C(C)C (stereo not drawn)	1	0.99	46.5	3.52	20.6	–	–
CC(C)N(C)C(=O)C1CCN(C(=O)CCl)CC1	1	1	–	17.3	38.8	-0.0976	–
C=CC(=O)N(c1ccc(S(F)(F)(F)(F)F)cc1)C(C(=O)Nc1c(C)cccc1CC)c1cccnc1 (stereo not drawn)	0.85	0.73	–	3.13	7.07	4.69	–
C=CC(=O)N(C1CCC2(CCCC2)C1)C(C(=O)NC(C)(C)C)c1cccnc1 (stereo not drawn)	0.98	0.99	–	5.22	6.35	0	–
O=C(c1cc(=O)[nH]c2ccc(F)cc12)N1CCN(S(=O)(=O)c2ccccc2)CC1	0.98	0.98	16.2	3.84	11.9	–	–
CC1(C)Cc2cccc(OCCNC(=O)c3cc(=O)[nH]c4cc(F)ccc34)c2O1	0.97	0.97	13.8	36.7	69.9	–	–
C=CC(=O)N(c1ccc(C(F)(F)F)cc1)C(C(=O)Nc1ccc(OC)cc1C)c1cccnc1 (stereo not drawn)	0.95	0.62	–	7.06	25.4	11	–
O=C(NCc1cccnc1)Nc1cccc(OCC(F)F)n1	1	1	4.42	3.33	8.28	0	–
O=C(NCc1ccno1)c1ccccc1Oc1ccc(Cl)cc1Cl	1	0.96	0	-13	-12.4	0	–
C=CC(=O)N(c1ccc(N(C)C)c(C)c1)C(C(=O)NC(C)(C)C)c1cccnc1 (stereo not drawn)	0.98	0.95	14.4	2.89	8.8	0	–
C=CC(=O)N(c1ccc(N(C)C)c(C)c1)C(C(=O)Nc1ccc(OC)cc1)c1cccnc1 (stereo not drawn)	0.88	0.77	2.05	2.56	7.05	0	–
O=C(Nc1cccnc1)Nc1ccc(Cl)s1	0.99	0.95	35.7	8.85	23.7	0	–
CS(=O)(=O)Nc1cccc(C(=O)OCC(=O)Nc2cccc(N3CCCC3=O)c2)c1	0.98	0.99	0	5.16	3.7	–	–
O=C1CC(c2cccc(NC(=O)Cc3cncnc3)c2)CN1 (stereo not drawn)	1	1	0	3.83	10.8	–	–
COc1ccc2[nH]cc(CCNC(C)=O)c2c1	1	0.99	–	1.37	-0.962	0	–
C=CC(=O)N(c1cc(C(C)(C)C)on1)C(C(=O)NC(C)(C)C)c1cccnc1 (stereo not drawn)	0.98	0.91	–	7.86	16.1	28.7	–
O=C(NCc1cnn2ccccc12)c1cccnc1OCCO	1	1.01	0	-18.2	-28.9	0	–
O=C(C1CCN(c2ccncc2)CC1)N1CCOCC1	1	1	0	–	-22.6	0	–
Cc1cccc(NC(=O)C(C#N)C(=O)C2CCC2)c1 (stereo not drawn)	0.99	0.99	0	–	1.6	0.951	–
N#CC(C(=O)Nc1cccc(Cl)c1)C(=O)c1cccs1 (stereo not drawn)	1	1	0	–	31.8	0	–
O=C(Cc1ccccc1OC1CCOC1)OCc1cnn[nH]1 (stereo not drawn)	1	1	0	–	20.7	0	–

Compound	relative solubility at 20 uM	relative solubility at 100 uM	inhibition ([1]; 50.0 µM) [%]	inhibition ([2]; 20.0 µM) [%]	inhibition ([2]; 50.0 µM) [%]	inhibition ([1]; 20.0 µM) [%]	IC50 [1] [µM]
Cc1ccc(S(=O)(=O)NC2CCN(C(=O)CCl)CC2)cc1	1	1.01	–	25.1	59.3	54.9	18.5
O=S(=O)(NCCc1ccccc1)c1ccoc1	1	1	16.5	–	-24.5	0	–
C=CC(=O)N(c1ccc(C(C)(C)C)cc1)C(C(=O)Nc1ccc(OC)nc1)c1cccnc1 (stereo not drawn)	1	1	0	1.08	13.4	0	–
O=C1Nc2cc(Br)ccc2C1=O	1	1.01	23.8	-5.86	-4.62	–	–
Cc1ccncc1NC(=O)CC(O)C1CC1 (stereo not drawn)	1	1.01	2.72	-48	1.39	–	–
Cc1ccncc1NC(=O)CN1C(=O)COc2ccc(Cl)cc21	0.99	0.99	67.2	32.8	49.3	–	38.9
O=C(c1cc2sccc2s1)N1CCOC(CN2CCOCC2)C1 (stereo not drawn)	1	0.99	2.34	4.6	7.85	–	–
COc1ccc2nc(C)cc(C(=O)NN)c2c1	1	1	0	–	22.2	0	–
O=C1C(=O)N(Cc2ccc(Br)cc2)c2c(Br)cccc21	0.99	0.97	100	1.5	-1.15	–	0.485
CNS(=O)(=O)c1ccc(C(C)NC(=O)NC(C)(C)C)cc1 (stereo not drawn)	1	1	0	-0.809	-0.25	0	–
Cc1cccc(NC(=O)Cn2c(=O)oc3ccccc32)c1	0.99	0.94	-9.03	-20.4	-5.83	–	–
COc1ccc2c(c1)CN(C(=O)CCl)C(c1ccccc1)C2 (stereo not drawn)	0.98	0.96	100	97.4	97.5	–	1.78
Cc1ccncc1NC(=O)Cc1ccccc1	1	1	16.1	8.19	19.5	-0.63	–
C=CC(=O)N(c1ccc(C(C)(C)C)cc1)C(C(=O)N[C@H]1CC[C@@H](C(=O)OC)C1)c1cccnc1 (stereo in doubt)	1	0.98	6.96	7.31	22.2	0	–
O=C1CC(Oc2cccc(C(=O)NCc3cncnc3)c2)N1 (stereo not drawn)	1	1	28.1	21.6	25.1	–	–
C=C1CC1C(=O)NC(C)c1ccc(S(=O)(=O)NC)cc1 (stereo not drawn)	1	1	0	-2.67	-0.972	0	–
C=CC(=O)N(c1ccc(C2(C)CC2)cc1)C(C(=O)Nc1cccc(F)c1C)c1cccnc1 (stereo not drawn)	1	1	1.04	–	34.7	0	–
O=C(COc1ccccc1)NCCc1ccccc1	1	1	0	-0.178	-0.0738	0	–
NC(=O)[C@@H]1CN(C2CCOCC2)C[C@H]1c1ccccc1 (stereo in doubt)	1	1	0	-22.2	-23	0	–
C=CC(=O)N(c1ccc(C(C)(C)CC)cc1)C(C(=O)Nc1ccccc1Br)c1cccnc1 (stereo not drawn)	1	1	8.03	–	-11.5	0	–
C=CC(=O)N(c1ccc(C(C)(C)C)cc1)C(C(=O)Nc1ccc(OC)cc1OC)c1cccnc1 (stereo not drawn)	0.98	0.84	45.9	48.9	41.6	5.03	–
CO[C@H](C)C(=O)N(C)c1cnccc1C (stereo in doubt)	1.01	0.99	18	3.08	4.99	–	–
C=CC(=O)N(c1cc(C(C)(C)C)on1)C(C(=O)Nc1cccc(CC)c1)c1cccnc1 (stereo not drawn)	0.87	0.76	–	15.6	43.1	6.79	–
CN(C)C/C=C/C(=O)NCc1c[nH]c2ccccc12	0.96	0.98	–	3.86	0.744	0	–
O=C1NC(c2cccnc2)C(=O)N1c1cccc(Cl)c1 (stereo not drawn)	0.85	0.91	69.6	18.1	33.9	–	57.8

Compound	relative solubility at 20 uM	relative solubility at 100 uM	inhibition ([1]; 50.0 µM) [%]	inhibition ([2]; 20.0 µM) [%]	inhibition ([2]; 50.0 µM) [%]	inhibition ([1]; 20.0 µM) [%]	IC50 [1] [µM]
Cc1ccncc1NC(=O)CCOC1CC1	1	1	0	8.26	22	–	–
N#Cc1ccc(S(=O)(=O)N2CCN(C(=O)c3cc(=O)[nH]c4ccc(F)cc34)CC2)cc1	0.98	0.98	33.7	2.67	10.4	–	–
CN(C)c1ncccc1N(C)C(=O)C1CCOc2ccc(Cl)cc21 (stereo not drawn)	1	0.99	0	1.42	-4.96	–	–
Cc1ccncc1NC(=O)C(C)CC1CC1 (stereo not drawn)	1	1	0	-2.37	2.12	–	–
Cc1ccncc1NC(=O)Nc1ccccc1	1	1	-0.18	–	21.1	0	–
Cc1coc(NC(=O)Nc2cccnc2)n1	1	1	8.52	2.91	8.86	2.76	–
CS(=O)(=O)Cc1ccc(C(=O)Nc2cccnc2)o1	1	1	–	0.469	6.26	0	–
O=C(CCl)N1CCCC(N(CC2CCCCC2)C2CCC(O)CC2)C1 (stereo not drawn)	1	1	24.9	-11.8	7.36	–	–
Cc1ccc(NCc2cc(NC(=O)OC(C)(C)C)ccc2Br)cn1	0.9	0.7	35.9	-3.3	9.52	–	–
Cc1cc(C(C)(C)C)ccc1OC[C@H](O)Cn1cnccc1=O (stereo in doubt)	1.01	1	0	-3.67	16.5	–	–
O=C(NCc1cnccn1)c1sc2cccc(F)c2c1COc1ccccc1	0.95	0.44	-0.855	-1.73	6.32	0	–
C=CC(=O)N(c1ccc(C(C)(C)C)cc1)C(C(=O)NC1CCCCC1)c1cccnc1 (stereo not drawn)	0.99	1	18.6	13.3	17.8	0	–
C=CC(=O)N(c1ccc(N(C)C)c(C)c1)C(C(=O)Nc1ccccc1Br)c1cccnc1 (stereo not drawn)	0.86	0.79	–	2.84	8.13	0	–
O=C(c1cc(=O)[nH]c2ccccc12)N1CCN(Cc2ccccc2)CC1	0.99	1	82.4	74.5	87.8	–	18.8
Cn1nnnc1NC(=O)Cc1csc(C(C)(C)C)n1	0.99	1	0	1.85	5.13	–	–
NS(=O)(=O)c1ccc(N2CCC(Nc3ccccc3)CC2)cc1	1	1	22	–	9.57	27.2	–
O=C(CCl)N1CCN(Cc2nc(-c3cccs3)no2)CC1	0.98	0.93	0	6.55	17	–	–
O=C(CCl)N1CC2CC1CN2Cc1cccc(Cl)c1 (stereo not drawn)	0.99	1	100	82.2	72.7	100	0.655
Cc1ccc(Oc2cccc(NC(=O)NCc3cnnn3C)c2)c(C)c1	0.96	0.75	–	-10.7	-12.8	0	–
CCOc1ccccc1OC1CCN(C(=O)c2cc(=O)[nH]c3ccc(F)cc23)C1 (stereo not drawn)	1	0.99	0	6.76	18.2	–	–
O=C(N/N=C/c1c[nH]cn1)C1CCCCC1	1.01	1	-16.3	-3.95	2.16	–	–
CCN(CC1COc2ccccc2O1)C(=O)c1cc(=O)[nH]c2ccc([N+](=O)[O-])cc12 (stereo not drawn)	1	1	0	2.87	-7.35	–	–
CC1(C)CC(C(=O)Nc2nncn2C2CC2)c2ccccc2O1 (stereo not drawn)	1	0.98	0	-0.71	-5.02	–	–
C=CC(=O)N(c1ccc(C(C)(C)C)cc1)C(C(=O)NCc1ccccc1)c1cccnc1 (stereo not drawn)	0.99	0.89	100	42.3	66.6	69.1	14.3
Cc1ccc(S(=O)(=O)N2CCN(C(=O)c3cc(=O)[nH]c4cc(F)ccc34)CC2)c(C)c1	1	0.92	11.4	21.8	48.1	–	–
